Consider 93 compounds from the supplement of paper PMC5580409.

In general, pEC50 refers to the EC50 on a negative log10 scale, so that one unit is a factor of ten. Higher therefore signals a small EC50.

Structures are written as SMILES.

This assay has as its system Plasmodium falciparum 3D7. As to the kind of experiment: pEC50, asexual blood-stage growth inhibition. Conditions: 72 h. The procedure:
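Held-out test set measured in the Guy lab in 2014 with the same procedure as the primary St. Jude screen. P. falciparum 3D7 blood-stage culture (2% hematocrit, 1% parasitemia) was treated with compound for 72 h at 37 °C, and growth was read by SYBR Green I fluorescence. EC50 came from a four-parameter Hill fit over a 10-point dilution series […].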
Compound `OC(CNc1ccc(Cl)cc1)Cn1c2ccc(Cl)cc2c2cc(Cl)ccc21` (stereo not drawn) came in with a pEC50 of less than 4.82.
`Cc1cccc(NCC(O)Cn2c3ccc(Cl)cc3c3cc(Cl)ccc32)c1` (stereo not drawn) registered a pEC50 of 5.35.
Compound `CCOC(=O)c1c(C)oc2cc(CN(C)C)c(O)cc12` came in with a pEC50 of 5.29.
In turn, `COc1c(O)ccc(/C=N/NC(=O)C2CC2(c2ccccc2)c2ccccc2)c1[N+](=O)[O-]` (stereo not drawn) returned a pEC50 of less than 4.82.
To `OCCCNCC(O)Cn1c2ccccc2c2ccccc21` (stereo not drawn) belongs less than 4.82.
In the case of `CCOC(=O)C1=C(C)NC2=C(C(=O)CC(c3ccc(Cl)cc3)C2)C1c1ccc(OCC)cc1` (stereo not drawn) it was less than 4.82; in that of `COc1ccc(N2CCN(C(=O)c3ccc(C)cc3)CC2)c([N+](=O)[O-])c1`, 5.23.
In the case of `Cc1cccc(NCC(O)Cn2c3ccc(Br)cc3c3cc(Br)ccc32)c1C` (stereo not drawn) it was 5.21.
As to `COc1cc(C2CC(=O)NC3=C2C(=O)CC(c2ccc(C)cc2)C3)ccc1O` (stereo not drawn), the pEC50 is less than 4.82.
In the case of `Cc1onc(-c2c(Cl)cccc2Cl)c1C(=O)Nc1cc(Cl)ccc1Cl` it was 6.54; in that of `Cc1ccc(C2CC(C(F)(F)F)n3nc(C(=O)N(Cc4ccccc4)Cc4ccccc4)cc3N2)cc1` (stereo not drawn), less than 4.82; in that of `CCn1c(SCC(=O)Nc2cc(C(F)(F)F)ccc2Cl)nnc1-c1ccccc1Cl`, less than 4.82.
To `CCCCn1c(=N)n(CC(=O)c2ccc(Br)cc2)c2ccccc21` belongs less than 4.82; to `CC(Nc1cc(N2CCN(C(=O)c3ccccc3)CC2)ccc1[N+](=O)[O-])c1ccccc1` (stereo not drawn), 6.18; to `O=S(=O)(c1ccccc1)N1CCC(CO)(Cc2ccccc2C(F)(F)F)CC1`, less than 4.82.
For the compound `Cc1cccc(NC(=O)/C=C/c2ccccc2Cl)c1`, the pEC50 was less than 4.82.
Compound `Cc1ccc(C)c(NCC(O)Cn2c3ccccc3c3ccccc32)c1` (stereo not drawn) gave a pEC50 of less than 4.82.
On to `Oc1ccc(Br)cc1CN1CCN(c2cccc(Cl)c2)CC1`, for which the pEC50 was 6.06.
Consider `O=C(Nc1ccccc1)c1ccccc1OCC(O)CN(Cc1ccccc1)Cc1ccccc1` (stereo not drawn), for which the negative-log EC50 (pEC50) was 6.31.
`COc1ccc(CN2CCCn3c4c(c5cc(C)ccc53)CCCC42)cc1O` (stereo not drawn) displayed a negative logarithm of the EC50 (pEC50) of less than 4.82.
Compound `CC(C)c1ccc(/C=C/C(=O)Nc2ccc(F)cc2)cc1` yielded a pEC50 of 5.21.
In the case of `CC1=C(C(=O)OCCOc2ccccc2)C(c2cccc(O)c2)C2=C(CC(c3ccc(Cl)cc3)CC2=O)N1` (stereo not drawn) it was less than 4.82; in that of `COc1ccc(Cl)cc1NCC(O)Cn1c2ccccc2c2ccccc21` (stereo not drawn), less than 4.82.
To `C=CCn1nnnc1NCc1cc(Cl)c(OC)c(OC)c1` belongs less than 4.82; to `O=c1c(Oc2ccccc2Cl)c(C(F)(F)F)oc2c(CN3CCCCC3)c(O)ccc12`, less than 4.82.
As to `CN1CCN(Cc2c(O)ccc3c(=O)c(Oc4ccc5ccccc5c4)c(C(F)(F)F)oc23)CC1`, the pEC50 was less than 4.82.
The compound `COc1cc(OC)c([N+](=O)[O-])cc1/C=N/NC(=O)C1CC1(c1ccccc1)c1ccccc1` (stereo not drawn) showed a pEC50 of less than 4.82.
In turn, `CN(C)CC(O)Cn1c2ccc(Cl)cc2c2cc(Cl)ccc21` (stereo not drawn) displayed a pEC50 of less than 4.82.
`O=C(Cc1cccc2ccccc12)Nc1ccc(-c2nc3ccccc3[nH]2)cc1` yielded a pEC50 of 5.57.
In the case of `Cc1ccc(C)c(OCC(O)CNC2CCCC2)c1` (stereo not drawn), the pEC50 is less than 4.82.
To `Cc1cccc2c(C(=O)N3CCN(Cc4ccccc4)CC3)cc(-c3cccnc3)nc12` belongs 5.25; to `CN(C)Cc1c(O)ccc2c(=O)c(Oc3ccc(C(C)(C)C)cc3)c(C(F)(F)F)oc12`, 5.24; to `CCN(CC)CCN1C(=O)c2ccccc2NC1c1ccc(Br)cc1` (stereo not drawn), 5.74.
On to `CCc1cccc(NC(=O)/C=C/c2ccccc2Cl)c1`, for which the pEC50 was 5.36.
To `CN1CCN(Cc2c(O)ccc3c(=O)c(-c4cccc5ccccc45)c(C(F)(F)F)oc23)CC1` belongs less than 4.82; to `COc1cc(C2CC(=O)NC3=C2C(=O)CC(c2ccc(OC)c(OC)c2)C3)c(OC)cc1Br` (stereo not drawn), 6.86; to `CC[n+]1c(/C=C/c2cc(C)n(-c3ccccc3)c2C)sc2ccccc21`, less than 4.82.
Consider `C=CCN1C(=O)CS/C1=C\c1sc2ccccc2[n+]1CC`, for which the pEC50 stood at 5.31.
To `COC(=O)[C@@H](NC(=O)c1cn(C2CCCCC2)cc(C(=O)NC(C)(C)C)c1=O)c1ccccc1` belongs less than 4.82; to `OC(CNC1CC1)Cn1c2ccccc2c2ccccc21` (stereo not drawn), less than 4.82; to `COc1ccc(CCN2C(=O)N(c3cccc(Cl)c3)C(=O)C2CC(=O)Nc2ccc(F)cc2)cc1` (stereo not drawn), less than 4.82.
`Cc1cc(OCC(O)CNC2CCCC2)ccc1Cl` (stereo not drawn) showed a pEC50 of 6.61.
In the case of `CCOC(=O)c1cnc2c(C)cccc2c1Nc1cccc(C(C)=O)c1` it was 5.35.
`COc1ccc(OC)c(C2CC(=O)C3=C(C2)NC(=O)CC3c2cccc(Cl)c2Cl)c1` (stereo not drawn) had a pEC50 of 5.61.
To `CCCn1nnnc1NCc1cc(Br)c(OCc2ccccc2)c(OC)c1` belongs less than 4.82; to `CCN(CC)CC(O)Cn1c2ccccc2c2ccccc21` (stereo not drawn), 5.34.
Compound `CCOC(=O)C1=C(C)NC2=C(C(=O)CC(c3ccc(Cl)cc3)C2)C1c1ccc(OC)cc1` (stereo not drawn) yielded a pEC50 of 5.93.
To `Cc1cc(C)c(C)c(Oc2cc(NC(=O)c3c(I)cnn3C)cc([N+](=O)[O-])c2)c1` belongs 6.28; to `OC(CNC1CCCCC1)COc1ccc(OCc2ccccc2)cc1` (stereo not drawn), less than 4.82.
In the case of `CC(C)c1ccc(/C=C/C(=O)Nc2ccc(C(C)C)cc2)cc1` it was less than 4.82.
As to `Cc1ccc2c(c1)c1c3n2CCCN(Cc2ccc(C(C)C)cc2)C3CCC1` (stereo not drawn), the pEC50 is less than 4.82.
`COc1ccc(S(=O)(=O)N2CCC(CO)(Cc3ccccc3C(F)(F)F)CC2)cc1` had a pEC50 of less than 4.82.
In turn, `CN(C)c1nc(N(C#N)CCOc2ccccc2)nc(N2CCOCC2)n1` yielded a pEC50 of less than 4.82.
In turn, `COc1ccc(C2C(C(=O)OCCOc3ccccc3)=C(C)NC3=C2C(=O)CC(c2ccc(Cl)cc2)C3)cc1` (stereo not drawn) returned a pEC50 of less than 4.82.
In the case of `COc1ccc(C(O)Cn2c(=N)n(CCN3CCCCC3)c3ccccc32)cc1` (stereo not drawn) it was less than 4.82.
The compound `N=c1n(CCN2CCOCC2)c2ccccc2n1CC(O)COc1ccccc1` (stereo not drawn) returned a pEC50 of less than 4.82.
To `O=S(=O)(c1cccc(C(F)(F)F)c1)N1CCC(CO)(Cc2cccc(C(F)(F)F)c2)CC1` belongs 5.68; to `CN(C)c1ccc(NC(=O)/C=C/c2ccccc2Cl)cc1`, 4.99.
As for `CCOC(=O)c1ccc(NC(=O)/C=C/c2ccccc2Cl)cc1`, the pEC50 was less than 4.82.
The compound `CCCCn1c(=N)n(CC(O)COc2ccc(Cl)cc2)c2ccccc21` (stereo not drawn) gave a pEC50 of less than 4.82.
Compound `OC(CNCC1CCCO1)Cn1c2ccc(Br)cc2c2cc(Br)ccc21` (stereo not drawn) returned a pEC50 of 5.76.
The compound `COc1ccc(CC2(CO)CCN(S(=O)(=O)c3cccc(C(F)(F)F)c3)CC2)cc1` came in with a pEC50 of less than 4.82.
For the compound `COc1ccc(C2CC(=O)NC3=C2C(=O)CC(c2ccccc2)C3)cc1OC` (stereo not drawn), the pEC50 amounted to 5.34.
The compound `OCCC1CN(Cc2cc(Cl)ccc2O)CCN1C1CCCCC1` (stereo not drawn) yielded a pEC50 of less than 4.82.
In the case of `C=CCN1C(=O)N(c2ccc(Cl)cc2)C(=O)C1CC(=O)Nc1ccc(F)cc1` (stereo not drawn) it was less than 4.82; in that of `Cc1cc(Nc2ccccc2C(F)(F)F)nc(-n2nc(C)cc2C)n1`, less than 4.82; in that of `OC(CNCCOc1ccccc1)Cn1c2ccccc2c2ccccc21` (stereo not drawn), less than 4.82.
To `CCOC(=O)C1=C(C)NC2=C(C(=O)CC(c3ccc(OC)cc3)C2)C1c1cccc(F)c1` (stereo not drawn) belongs 6.13.
The compound `COc1cccc(CNCC(O)c2ccccc2)c1` (stereo not drawn) came in with a negative-log EC50 (pEC50) of less than 4.82.
In the case of `CCOC(=O)c1cnc2c(Cl)cccc2c1Nc1cccc(C(C)=O)c1` it was 5.35; in that of `CCOc1cc(C2C(C(=O)OCCOC)=C(C)NC3=C2C(=O)CC(c2ccc(Cl)cc2)C3)ccc1O` (stereo not drawn), 5.52.
In turn, `CCCn1c(=N)n(CC(O)COc2ccc(Cl)cc2)c2ccccc21` (stereo not drawn) displayed a pEC50 of less than 4.82.
Regarding `CCOC(=O)c1c(C)oc2ccc(OC)cc12`, the pEC50 was less than 4.82.
The compound `Cc1c(Cl)ccc2c(C(=O)NCCN3CCOCC3)cc(-c3ccncc3)nc12` registered a negative-log EC50 (pEC50) of less than 4.82.
For `COC(=O)C1=C(C)NC2=C(C(=O)CC(c3ccc(Cl)cc3)C2)C1c1cccc(O)c1` (stereo not drawn), the negative-log EC50 (pEC50) is less than 4.82.
In turn, `CCN1/C(=C/C=C/C=C/c2sc3ccccc3[n+]2CC(=O)O)Sc2ccccc21` yielded a pEC50 of less than 4.82.
Compound `Oc1nc(/C=C/c2cccc3ccccc23)nc2ccccc12` had a pEC50 of less than 4.82.
`CCOC(=O)c1cnc2ccccc2c1Nc1ccc2c(c1)OCCO2` showed a pEC50 of less than 4.82.
In the case of `N=c1n(CCN2CCOCC2)c2ccccc2n1CC(O)COc1ccc(Cl)cc1` (stereo not drawn) it was less than 4.82; in that of `COc1cccc(CNc2nnnn2C)c1OCc1ccc(C)cc1`, less than 4.82.
`CC(CN1CCCCC1)NC(=O)c1cc(-c2cccnc2)nc2ccc(Cl)cc12` (stereo not drawn) gave a pEC50 of 5.7.
The compound `CC(C)(C)NCC(O)Cn1c2ccccc2c2ccccc21` (stereo not drawn) showed a pEC50 of 5.21.
As for `CCOc1cc(C2C(C(=O)OCC(C)C)=C(C)NC3=C2C(=O)CC(c2ccc(Cl)cc2)C3)ccc1O` (stereo not drawn), the pEC50 was less than 4.82.
As for `Cc1ccc(NCC(O)Cn2c3ccc(Cl)cc3c3cc(Cl)ccc32)cc1` (stereo not drawn), the pEC50 worked out at 5.28.
On to `CCOC(=O)C1=C(C)NC2=C(C(=O)CC(c3ccccc3)C2)C1c1cc(Cl)c(O)c(OC)c1` (stereo not drawn), for which the pEC50 is less than 4.82.
Compound `CC(C)c1ccc(/C=C/C(=O)Nc2cccc(Cl)c2)cc1` returned a pEC50 of less than 4.82.
In turn, `CCn1c2ccccc2c2cc(CNC3CCCCC3)ccc21` returned a pEC50 of less than 4.82.
With `O=C(Nc1ccc(-c2nc3cc(-c4nc5cc(NC(=O)c6cccc7ccccc67)ccc5[nH]4)ccc3[nH]2)cc1)c1cccc2ccccc12`, the pEC50 was less than 4.82.
For `CCN1\C(=C/C=C(C)/C=C/c2sc3ccccc3[n+]2CC)Sc2ccccc21`, the pEC50 was found to be 5.34.
The compound `CC(C)(C)C(=O)N1CCN(C(c2ccccc2)c2ccccc2)CC1` gave a pEC50 of less than 4.82.
The compound `CCOC(=O)C1=C(C)NC2=C(C(=O)CC(c3ccc(Cl)cc3)C2)C1c1cccc(OC)c1OC` (stereo not drawn) gave a pEC50 of less than 4.82.
In turn, `Cc1nn(C)c(C(=O)NNC(=O)Nc2ccc([N+](=O)[O-])cc2)c1Cl` gave a pEC50 of 6.93.
In the case of `CCN(CC)CC(O)COc1ccc(CNC2CCCCC2)cc1OC` (stereo not drawn) it was less than 4.82.
